Measurements as given in patent US11154480B2, “Shaping keratin fibres using a sugar” (The Procter & Gamble Company, priority 2013, dated 2021).

Key:
[1] = Benedict's Test for reducing sugars; type: physicochemical
From the text: As used herein, “reducing sugar” means any sugar that either has an aldehyde group or is capable of forming an aldehyde group in solution through isomerism, and that gives a positive result in the Benedict's test. An aldehyde group is —C(═O)H. The aldehyde group is important in view of reacting with and crosslinking the hair. The Benedict's test involves employment of the Benedict's solution. The Benedict's solution is available from Sigma Aldrich as ‘Benedict's Reagent’, which comprises sodium carbonate, copper sulphate pentahydrate and 2,5-difluorotoluene. In the Benedict's test, 1 mL of Benedict's solution is added to a 20 mL of 5% aqueous solution comprising a dissolved test compound. Benedict's solution contains blue copper(II) ions (Cu^2+). The solution is heated to 80° C. for 15 min and the resulting colour change is noted. The cupric ion of the Benedict's solution is reduced to cuprous ion by the aldehyde of the sugar. A positive Benedict's test result is confirmed with a change in colour as cupric ions (Cu^2+) are converted to cuprous ions i.e. reduced to copper(I) ions (Cu^+). These are precipitated as red copper(I) oxide which is insoluble in water. The test is also designed for longer heating time and higher temperature to note any colour change. The solution may range in colour (with increasing amounts of reducing sugar) from green, through yellow and orange, to red. […] The wavelength of light reflected by the solution will change with the colour. In at least one embodiment, a positive Benedict's test result is when the solution emits light not peaking with a wavelength in the range of 450 nm to 495 nm. In at least one embodiment, a positive Benedict's test result is when the solution emits light peaking with a wavelength in the range of 620 nm to 750 nm. This can be measured using a spectrophotometer.
In the art, the Benedict's reagent is used as a test for the presence of reducing sugars. This includes all monosaccharides and many disaccharides, including lactose and maltose. Even more generally, Benedict's test will detect the presence of aldehydes, and alpha-hydroxy-ketones, including those that occur in certain ketoses. Thus, although fructose, a ketose, is not strictly a reducing sugar, it is an alpha-hydroxy-ketone, it gives a positive test because it is converted to the aldoses glucose and mannose by the base in the reagent. The copper sulphate in Benedict's solution reacts with reducing sugars. One litre of Benedict's reagent can be prepared from 100 g of anhydrous sodium carbonate, 173 g of sodium citrate and 17.3 g of copper(II) sulfate pentahydrate. Benedict's Reagent provides a quantitative test for reducing sugars along with qualitative test. The colour of the obtained precipitate gives an idea about the quantity of sugar present in the solution. A greenish precipitate indicates about 0.5% concentration; yellow precipitate indicates 1% concentration; orange indicates 1.5% and red indicates 2% or higher concentration. A positive result in the Benedict's test can be recognised for a compound by a 5% (weight/weight) solution of compound in water as a red colouring. The aldehyde group of the sugar allows the sugar to act as a reducing agent, for example in the Benedict's test.

[2] = as known in the art; converted to aldoses by the base in the reagent; cited from earlier work
[3] = 80° C., 15 min, 5% aqueous solution of test compound

Row | Structure (SMILES) | Assessment of sugars using the Benedict's Test [1, 3] | Assessment of sugars using the Benedict's Test ([1]; 100° C., 40 min) | Benedict's test result [2]
1 | O=C(CO)[C@@H](O)[C@H](O)[C@H](O)CO [Fructose] | Positive | Positive | positive
2 | O=C[C@@H](O)[C@H](O)[C@H](O)CO [Arabinose] | Positive | Positive | –
3 | CO[C@H]1OC(CO)[C@H](O)[C@@H](O)[C@@H]1O (stereo partly shown) [Methyl glucoside] | Negative | Positive | –
4 | OC[C@H]1O[C@@](CO)(O[C@H]2O[C@H](CO)[C@@H](O)[C@H](O)[C@H]2O)[C@@H](O)[C@@H]1O [Sucrose] | Negative | Positive | –
5 | O=C[C@H](O)[C@@H](O)[C@H](O)CO [Xylose] | Positive | Positive | –
6 | O=C[C@H](O)[C@H](O)[C@H](O)CO [Ribose] | Positive | Positive | –
